Laboratory results from patent US9896435B2, “N-pyrrolidinyl,N′-pyrazolyl-urea, thiourea, guanidine and cyanoguanidine compounds as TrkA kinase inhibitors” (Array BioPharma Inc., priority 2012, dated 2018).

How the values were obtained:
CAMK2g = CAMK2g (Homo sapiens (Human), UniProt Q13555); test: KinaseProfiler off-target kinase profiling; format: biochemical; details: 10 μM, ATP near Km
How it was run: (§1)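 Off-target activity was measured at one compound concentration, 10 μM, in duplicate. ATP was held near the Km for each kinase, and the two replicates were averaged and expressed as percent of control.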

SIK = SIK (Homo sapiens (Human), UniProt P57059); test: KinaseProfiler off-target kinase profiling; format: biochemical; details: 10 μM, ATP near Km
How it was run: as §1

BLK = test: KinaseProfiler off-target kinase profiling; format: biochemical; details: 10 μM, ATP near Km
How it was run: as §1

CDK9/cyclinT1 = CDK9/cyclinT1 (Homo sapiens (Human), UniProt P50750); test: KinaseProfiler off-target kinase profiling; format: biochemical; details: 10 μM, ATP near Km
How it was run: as §1

EphA8 = EphA8 (Homo sapiens (Human), UniProt P29322); test: KinaseProfiler off-target kinase profiling; format: biochemical; details: 10 μM, ATP near Km
How it was run: as §1

p38gamma = p38gamma (Homo sapiens (Human), UniProt P53778); test: KinaseProfiler off-target kinase profiling; format: biochemical; details: 10 μM, ATP near Km
How it was run: as §1

Txk = Txk (Homo sapiens (Human), UniProt P42681); test: KinaseProfiler off-target kinase profiling; format: biochemical; details: 10 μM, ATP near Km
Txk, sequence (P42681 whole entry): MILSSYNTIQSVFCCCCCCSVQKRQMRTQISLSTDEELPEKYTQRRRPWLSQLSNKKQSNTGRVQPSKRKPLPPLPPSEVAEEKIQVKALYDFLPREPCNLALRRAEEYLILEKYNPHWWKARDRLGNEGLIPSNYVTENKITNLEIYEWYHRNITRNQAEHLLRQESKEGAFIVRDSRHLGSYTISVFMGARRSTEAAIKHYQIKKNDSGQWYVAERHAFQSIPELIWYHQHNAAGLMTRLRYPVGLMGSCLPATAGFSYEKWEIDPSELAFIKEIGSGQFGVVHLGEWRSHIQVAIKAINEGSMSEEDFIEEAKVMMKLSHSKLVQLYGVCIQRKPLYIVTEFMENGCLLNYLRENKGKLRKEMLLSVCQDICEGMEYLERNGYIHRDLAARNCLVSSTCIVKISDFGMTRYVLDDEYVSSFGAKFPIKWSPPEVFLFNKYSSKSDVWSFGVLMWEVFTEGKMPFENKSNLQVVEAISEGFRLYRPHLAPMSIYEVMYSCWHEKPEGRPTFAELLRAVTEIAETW
How it was run: as §1

Mer = Mer (Homo sapiens (Human), UniProt Q12866); test: KinaseProfiler off-target kinase profiling; format: biochemical; details: 10 μM, ATP near Km
Mer, sequence (Q12866 21-999): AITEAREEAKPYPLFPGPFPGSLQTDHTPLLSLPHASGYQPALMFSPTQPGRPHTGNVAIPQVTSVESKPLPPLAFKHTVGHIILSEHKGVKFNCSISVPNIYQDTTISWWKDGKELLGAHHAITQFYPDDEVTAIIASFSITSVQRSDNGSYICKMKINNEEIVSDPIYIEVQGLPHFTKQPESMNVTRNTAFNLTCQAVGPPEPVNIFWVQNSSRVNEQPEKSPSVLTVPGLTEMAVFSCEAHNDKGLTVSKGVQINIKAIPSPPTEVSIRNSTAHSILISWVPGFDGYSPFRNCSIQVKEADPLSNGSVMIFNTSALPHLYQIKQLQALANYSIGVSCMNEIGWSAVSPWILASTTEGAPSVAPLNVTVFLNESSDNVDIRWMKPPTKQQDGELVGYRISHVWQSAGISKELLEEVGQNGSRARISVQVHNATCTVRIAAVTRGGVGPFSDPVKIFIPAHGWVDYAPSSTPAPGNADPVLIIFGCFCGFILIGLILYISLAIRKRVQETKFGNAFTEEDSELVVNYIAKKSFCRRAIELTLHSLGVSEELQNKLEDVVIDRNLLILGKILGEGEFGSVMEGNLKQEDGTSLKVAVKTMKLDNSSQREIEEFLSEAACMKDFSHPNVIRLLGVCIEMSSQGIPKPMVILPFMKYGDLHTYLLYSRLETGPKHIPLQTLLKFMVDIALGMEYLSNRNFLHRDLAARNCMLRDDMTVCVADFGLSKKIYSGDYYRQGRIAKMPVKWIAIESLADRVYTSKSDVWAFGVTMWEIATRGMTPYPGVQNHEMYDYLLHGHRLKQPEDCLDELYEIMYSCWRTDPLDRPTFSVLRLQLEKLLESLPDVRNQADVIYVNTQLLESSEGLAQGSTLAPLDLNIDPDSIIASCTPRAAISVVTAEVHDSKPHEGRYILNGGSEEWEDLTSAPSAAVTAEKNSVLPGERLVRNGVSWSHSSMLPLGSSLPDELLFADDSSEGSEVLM
How it was run: as §1

MST3 = MST3 (Homo sapiens (Human), UniProt Q9Y6E0); test: KinaseProfiler off-target kinase profiling; format: biochemical; details: 10 μM, ATP near Km
How it was run: as §1

AMPK(A1/B1/G1) = AMPK(A1/B1/G1) (Homo sapiens (Human), UniProt Q13131); test: KinaseProfiler off-target kinase profiling; format: biochemical; details: 10 μM, ATP near Km
How it was run: as §1

IGF-1R Activated = IGF-1R Activated (Homo sapiens (Human), UniProt P08069); test: KinaseProfiler off-target kinase profiling; format: biochemical; details: 10 μM, ATP near Km
How it was run: as §1

EphA4 = EphA4 (Homo sapiens (Human), UniProt P54764); test: KinaseProfiler off-target kinase profiling; format: biochemical; details: 10 μM, ATP near Km
EphA4, sequence (P54764 20-986): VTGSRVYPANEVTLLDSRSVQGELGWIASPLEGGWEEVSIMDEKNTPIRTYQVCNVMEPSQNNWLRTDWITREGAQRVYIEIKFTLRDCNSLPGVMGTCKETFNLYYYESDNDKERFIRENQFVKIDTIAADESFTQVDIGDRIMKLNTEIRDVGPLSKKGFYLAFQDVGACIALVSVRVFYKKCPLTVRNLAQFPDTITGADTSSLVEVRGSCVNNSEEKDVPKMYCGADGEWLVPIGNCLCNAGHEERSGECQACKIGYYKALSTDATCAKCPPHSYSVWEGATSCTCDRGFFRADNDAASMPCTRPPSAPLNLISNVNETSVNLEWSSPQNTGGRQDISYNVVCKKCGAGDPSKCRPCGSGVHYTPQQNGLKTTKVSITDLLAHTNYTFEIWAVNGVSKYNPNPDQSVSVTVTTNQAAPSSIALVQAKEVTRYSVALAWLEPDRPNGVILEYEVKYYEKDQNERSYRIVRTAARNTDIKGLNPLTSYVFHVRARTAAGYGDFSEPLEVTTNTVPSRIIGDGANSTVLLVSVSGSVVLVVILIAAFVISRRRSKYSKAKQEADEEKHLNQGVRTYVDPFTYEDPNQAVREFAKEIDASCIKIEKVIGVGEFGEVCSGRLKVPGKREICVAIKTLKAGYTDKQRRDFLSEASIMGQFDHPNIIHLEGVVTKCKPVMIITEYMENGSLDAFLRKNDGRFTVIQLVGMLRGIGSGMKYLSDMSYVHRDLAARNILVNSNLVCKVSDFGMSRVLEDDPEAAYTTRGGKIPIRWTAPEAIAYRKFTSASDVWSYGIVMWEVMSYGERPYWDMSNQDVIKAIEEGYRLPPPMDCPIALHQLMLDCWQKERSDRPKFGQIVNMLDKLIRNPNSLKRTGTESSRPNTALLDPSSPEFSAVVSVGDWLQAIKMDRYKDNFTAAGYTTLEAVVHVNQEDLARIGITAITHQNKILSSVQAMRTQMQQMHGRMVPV
How it was run: as §1

PKCiota = PKCiota (Homo sapiens (Human), UniProt P41743); test: KinaseProfiler off-target kinase profiling; format: biochemical; details: 10 μM, ATP near Km
PKCiota, sequence (P41743 whole entry): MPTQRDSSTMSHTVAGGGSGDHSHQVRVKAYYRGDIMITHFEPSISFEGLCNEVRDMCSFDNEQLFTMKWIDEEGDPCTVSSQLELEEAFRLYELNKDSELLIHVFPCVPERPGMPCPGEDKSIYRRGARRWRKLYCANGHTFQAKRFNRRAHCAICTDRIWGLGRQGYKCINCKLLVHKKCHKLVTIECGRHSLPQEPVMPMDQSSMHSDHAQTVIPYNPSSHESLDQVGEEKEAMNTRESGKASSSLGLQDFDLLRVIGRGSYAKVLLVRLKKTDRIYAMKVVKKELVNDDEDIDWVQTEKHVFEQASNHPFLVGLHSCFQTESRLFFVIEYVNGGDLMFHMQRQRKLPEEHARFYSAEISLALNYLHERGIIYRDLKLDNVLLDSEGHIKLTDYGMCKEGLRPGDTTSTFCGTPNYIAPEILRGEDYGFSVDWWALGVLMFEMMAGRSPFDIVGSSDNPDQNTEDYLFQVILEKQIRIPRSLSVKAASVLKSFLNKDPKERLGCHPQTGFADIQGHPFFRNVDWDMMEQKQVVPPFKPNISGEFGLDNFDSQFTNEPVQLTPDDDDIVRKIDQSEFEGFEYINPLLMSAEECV
How it was run: as §1

p70S6K = p70S6K (Homo sapiens (Human), UniProt P23443); test: KinaseProfiler off-target kinase profiling; format: biochemical; details: 10 μM, ATP near Km
How it was run: as §1

c-RAF = c-RAF (Homo sapiens (Human), UniProt P04049, Y340D/Y341D); test: KinaseProfiler off-target kinase profiling; format: biochemical; details: 10 μM, ATP near Km
How it was run: as §1

PKD1 = PKD1 (Homo sapiens (Human), UniProt Q15139); test: KinaseProfiler off-target kinase profiling; format: biochemical; details: 10 μM, ATP near Km
How it was run: as §1

CDK1/cyclinB = CDK1/cyclinB (Homo sapiens (Human), UniProt P06493); test: KinaseProfiler off-target kinase profiling; format: biochemical; details: 10 μM, ATP near Km
How it was run: as §1

TrkA = TrkA (Homo sapiens (Human), UniProt P04629); test: KinaseProfiler off-target kinase profiling; format: biochemical; details: 10 μM, ATP near Km
How it was run: as §1

IRAK4 = IRAK4 (Homo sapiens (Human), UniProt Q9NWZ3); test: KinaseProfiler off-target kinase profiling; format: biochemical; details: 10 μM, ATP near Km
How it was run: as §1

PKCdelta = PKCdelta (Homo sapiens (Human), UniProt Q05655); test: KinaseProfiler off-target kinase profiling; format: biochemical; details: 10 μM, ATP near Km
PKCdelta, sequence (Q05655 whole entry): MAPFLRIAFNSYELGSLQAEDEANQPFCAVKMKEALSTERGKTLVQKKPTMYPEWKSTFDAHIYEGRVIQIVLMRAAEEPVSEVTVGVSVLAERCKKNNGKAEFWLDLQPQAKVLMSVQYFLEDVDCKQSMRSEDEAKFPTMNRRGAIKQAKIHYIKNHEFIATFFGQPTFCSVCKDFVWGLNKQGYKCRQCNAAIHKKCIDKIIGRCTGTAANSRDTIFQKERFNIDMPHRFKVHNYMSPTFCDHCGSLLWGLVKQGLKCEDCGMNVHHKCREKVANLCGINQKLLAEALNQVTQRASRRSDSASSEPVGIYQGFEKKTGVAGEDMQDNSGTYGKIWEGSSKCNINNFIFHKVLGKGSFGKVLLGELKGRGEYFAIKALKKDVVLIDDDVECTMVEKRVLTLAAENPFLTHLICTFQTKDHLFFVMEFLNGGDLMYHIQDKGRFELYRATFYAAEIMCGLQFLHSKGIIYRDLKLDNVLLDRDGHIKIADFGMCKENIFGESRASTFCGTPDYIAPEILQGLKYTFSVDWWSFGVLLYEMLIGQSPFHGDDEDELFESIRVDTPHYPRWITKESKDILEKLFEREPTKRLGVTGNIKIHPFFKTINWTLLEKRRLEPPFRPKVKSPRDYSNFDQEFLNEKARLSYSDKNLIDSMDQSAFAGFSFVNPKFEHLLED
How it was run: as §1

IRR = IRR (Homo sapiens (Human), UniProt P14616); test: KinaseProfiler off-target kinase profiling; format: biochemical; details: 10 μM, ATP near Km
How it was run: as §1

PAK5 = PAK5 (Homo sapiens (Human), UniProt Q9P286); test: KinaseProfiler off-target kinase profiling; format: biochemical; details: 10 μM, ATP near Km
How it was run: as §1

TNK2 = TNK2 (Homo sapiens (Human), UniProt Q07912); test: KinaseProfiler off-target kinase profiling; format: biochemical; details: 10 μM, ATP near Km
How it was run: as §1

LIMK1 = LIMK1 (Homo sapiens (Human), UniProt P53667); test: KinaseProfiler off-target kinase profiling; format: biochemical; details: 10 μM, ATP near Km
How it was run: as §1

Abl-P = Abl-P (Homo sapiens (Human), UniProt P00519); test: KinaseProfiler off-target kinase profiling; format: biochemical; details: 10 μM, ATP near Km
How it was run: as §1

PKCalpha = PKCalpha (Homo sapiens (Human), UniProt P17252); test: KinaseProfiler off-target kinase profiling; format: biochemical; details: 10 μM, ATP near Km
How it was run: as §1

JNK3 = JNK3 (Homo sapiens (Human), UniProt P53779); test: KinaseProfiler off-target kinase profiling; format: biochemical; details: 10 μM, ATP near Km
JNK3, sequence (P53779 whole entry): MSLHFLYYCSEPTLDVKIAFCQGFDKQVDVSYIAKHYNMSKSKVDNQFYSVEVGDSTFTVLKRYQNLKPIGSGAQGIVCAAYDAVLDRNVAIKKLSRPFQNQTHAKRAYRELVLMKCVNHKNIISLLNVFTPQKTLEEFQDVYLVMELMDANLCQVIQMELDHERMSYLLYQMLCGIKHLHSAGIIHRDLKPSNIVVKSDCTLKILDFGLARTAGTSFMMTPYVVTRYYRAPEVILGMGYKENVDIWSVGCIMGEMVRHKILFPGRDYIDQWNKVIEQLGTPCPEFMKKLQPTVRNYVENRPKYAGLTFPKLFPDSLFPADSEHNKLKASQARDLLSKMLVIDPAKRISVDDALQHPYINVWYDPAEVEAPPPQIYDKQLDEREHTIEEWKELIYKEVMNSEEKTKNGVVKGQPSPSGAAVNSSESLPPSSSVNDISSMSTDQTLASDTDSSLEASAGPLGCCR
How it was run: as §1

MST2 = MST2 (Homo sapiens (Human), UniProt Q13188); test: KinaseProfiler off-target kinase profiling; format: biochemical; details: 10 μM, ATP near Km
MST2, sequence (Q13188 whole entry): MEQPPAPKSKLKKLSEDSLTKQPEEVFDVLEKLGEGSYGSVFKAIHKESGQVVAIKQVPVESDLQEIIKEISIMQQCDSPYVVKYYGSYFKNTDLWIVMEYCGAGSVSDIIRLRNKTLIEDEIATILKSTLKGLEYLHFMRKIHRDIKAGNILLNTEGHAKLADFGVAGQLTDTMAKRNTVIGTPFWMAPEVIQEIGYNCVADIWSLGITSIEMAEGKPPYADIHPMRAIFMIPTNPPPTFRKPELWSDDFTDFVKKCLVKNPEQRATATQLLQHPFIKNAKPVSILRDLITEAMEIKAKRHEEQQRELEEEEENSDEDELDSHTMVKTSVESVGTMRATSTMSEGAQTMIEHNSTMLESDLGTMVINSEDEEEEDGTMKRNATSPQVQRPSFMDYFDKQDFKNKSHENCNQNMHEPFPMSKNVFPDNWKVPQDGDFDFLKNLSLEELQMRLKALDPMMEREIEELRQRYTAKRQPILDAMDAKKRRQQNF
How it was run: as §1

[1] = tested on: off-target kinases in the full kinase panel; test: KinaseProfiler full kinase panel, overall result; format: biochemical; details: for selectivity for inhibiting TrkA versus other kinases in the panel: 10 μM, panel of about 230 kinases; for activity against off-target kinases: concentration of 10 μM
Method: Two representative compounds (Example 2, 14) of the invention were tested for off-target kinase activity at a concentration of 10 μM by Millipore, Inc. in their KinaseProfiler™ service against all the kinases available in their full kinase panel. These compounds were run in duplicate at a concentration of ATP near the Km for each individual kinase according to Millipore's specifications. The results are shown in Table B. Data are reported as percent of control (POC) and are the average of the two replicates.
Such a drug profile would represent a safer approach to treating pain, inflammation, cancer and certain skin diseases than has been previously reported.

[2] = biological target: His-tagged recombinant human TrkA (Homo sapiens (Human), UniProt P04629); test: TrkA LanthaScreen Eu Kinase Binding Assay; details: averaged IC50; LanthaScreen binding assay of Example A; read-out: TrkA Enzyme IC50
Method: TrkA binding activity was determined in a TrkA LanthaScreen™ Eu Kinase Binding Assay. 5 nM His-tagged recombinant human TrkA (6HIS tagged cytoplasmic domain from Invitrogen, Catalog No. PV3144) was incubated with 4 nM Alexa-Fluor® Tracer 236 (Invitrogen Cat. No. PV5592), 2 nM biotinylated anti-His (Invitrogen Cat. No. PV6090), and 2 nM europium-labeled Streptavidin (Invitrogen Cat. No. PV5899), in buffer (25 mM MOPS, pH 7.5, 5 mM MgCl2, 0.005% Triton X-100). Three fold serial dilutions of compounds of the invention in DMSO were added to a final percentage of 2% DMSO. After 60-minute incubation at 22° C., the reaction was measured using the EnVision mutlimode plate reader (PerkinElmer) via TR-FRET dual wavelength detection at […]. The percent of control was calculated using a ratiometric emission factor. The IC50 values were determined by fitting a four parameter model to the percent of control data.
Table A provides averaged IC50 values for compounds of the invention when tested in the assay of Example A, where A represents an averaged IC50 value<100 nM.

Row | Avg POC (CAMK2g) | Avg POC (SIK) | Avg POC (BLK) | Avg POC (CDK9/cyclinT1) | Avg POC (EphA8) | Avg POC (p38gamma) | Avg POC (Txk) | Avg POC (Mer) | Avg POC (MST3) | Avg POC (AMPK(A1/B1/G1)) | Avg POC (IGF-1R Activated) | Avg POC (EphA4) | Avg POC (PKCiota) | Avg POC (p70S6K) | Avg POC (c-RAF) | Avg POC (PKD1) | Avg POC (CDK1/cyclinB) | Avg POC (TrkA) | Avg POC (IRAK4) | Avg POC (PKCdelta) | SMILES | further results
1 | 89.5 POC | 106.5 POC | 92 POC | 104 POC | 104.5 POC | 92 POC | 99.5 POC | 90.5 POC | 101 POC | 118 POC | 102 POC | 108.5 POC | 95 POC | 105.5 POC | 103.5 POC | 96 POC | 104 POC | 0.5 POC | 132 POC | 102.5 POC | COCCN1C[C@@H](NC(=O)Nc2c(C)c(-c3ccnc(C)c3)nn2-c2ccccc2)[C@H](c2ccc(F)c(F)c2)C1 [Example 2, 1-((3S,4R)-4-(3,4-difluorophenyl)-1-(2-methoxyethyl)pyrrolidin-3-yl)-3-(4-methyl-3-(2-methylpyridin-4-yl)-1-phenyl-1H-pyrazol-5-yl)urea] | Avg POC (IRR): 105 POC; Avg POC (PAK5): 103 POC; Avg POC (TNK2): 109.5 POC; Avg POC (LIMK1): 100 POC; Avg POC (Abl-P): 113.5 POC; Avg POC (PKCalpha): 96 POC; Avg POC (JNK3): 111.5 POC; Avg POC (MST2): 99.5 POC; selectivity for inhibiting TrkA versus other kinases in the panel [1]: remarkable and unexpected selectivity; activity against off-target kinases [1]: largely inactive; IC50 [2]: < 100 nM
2 | 99 POC | 96 POC | 91.5 POC | 104 POC | 104.5 POC | 92.5 POC | 98.5 POC | 78 POC | 105.5 POC | 106.5 POC | 106 POC | 103.5 POC | 104.5 POC | 98 POC | 89 POC | 97 POC | 97 POC | 1 POC | 110.5 POC | 99.5 POC | COCCN1C[C@@H](NC(=O)Nc2c(C)c(-c3cnc(C)nc3)nn2-c2ccccc2)[C@H](c2cc(F)cc(F)c2)C1 [Example 14, 1-((3S,4R)-4-(3,5-difluorophenyl)-1-(2-methoxyethyl)pyrrolidin-3-yl)-3-(4-methyl-3-(2-methylpyrimidin-5-yl)-1-phenyl-1H-pyrazol-5-yl)urea] | Avg POC (IRR): 96 POC; Avg POC (PAK5): 107 POC; Avg POC (TNK2): 97.5 POC; Avg POC (LIMK1): 98 POC; Avg POC (Abl-P): 102.5 POC; Avg POC (PKCalpha): 93 POC; Avg POC (JNK3): 121 POC; Avg POC (MST2): 101 POC; selectivity for inhibiting TrkA versus other kinases in the panel [1]: remarkable and unexpected selectivity; activity against off-target kinases [1]: largely inactive; IC50 [2]: < 100 nM
